For one data set, the system named is Salmonella paratyphi. In words: microbe, parasite or virus in culture. The settings on record: Salmonella enterica. Format: functional, Salmonella enterica subsp. enterica serovar Paratyphi A.
Data set [1] in a line: Total serum concentrations at 0 to 4 hours interval was determined by 50 mg / kg oral administration. It counts as ADME, cell-free.
In another data set the test system is Bacillus subtilis. In words: In vitro antibacterial activity against Bacillus subtilis ATCC 6633. It counts as functional.
A further data set deals with Klebsiella pneumoniae. In words: microbe, parasite or virus in culture. It counts as functional.
The next data set deals with Proteus vulgaris. Briefly: In vitro antibacterial activity against Proteus vulgaris HX-19. Format: functional.
Data set [2] has as its system Staphylococcus epidermidis. In words: microbe, parasite or virus in culture. Format: functional.
Description: In vitro antibacterial activity against Staphylococcus epidermidis IAM 1576
For data set [3], the system named is Mus musculus. Briefly: In vivo antibacterial activity against Escherichia coli (KC-14) was determined for the compound administered perorally; Value ranges from […]-[…]. It counts as functional. As to conditions: po.
Data set [4] in a line: Concentrations in serum after 30 minutes at 50 mg / kg oral administration. Format: ADME, cell-free.
A further data set relates to Staphylococcus aureus. In words: In vitro antibacterial activity against Staphylococcus aureus FDA 209P JC-1. It counts as functional.
Data set [5] in a line: Concentrations in serum after 60 minutes at 50 mg / kg oral administration. It counts as ADME, cell-free.
Data set [6] can be described thus: Concentrations in serum after 120 minutes at 50 mg / kg oral administration. Format: ADME, cell-free.
Data set [7] in a line: Concentrations in serum after 240 minutes at 50 mg / kg oral administration. It counts as ADME.
Another data set relates to Escherichia coli. In words: In vitro antibacterial activity against Escherichia coli NIHJ JC-2. Format: functional.
Another data set has as its system Pseudomonas aeruginosa. Briefly: In vitro antibacterial activity against Pseudomonas aeruginosa IFO 3445. Format: functional.
A short description of data set [8]: In vivo acute toxicity against Escherichia coli (KC-14) was determined for the compound administered intravenously. Format: organism-based. The settings on record: mouse, iv.
For data set [9], the system named is Mus musculus. In words: In vivo antibacterial activity against Escherichia coli (KC-14) was determined for the compound administered perorally; Value ranges from 3.3-5.0. Format: functional. As to conditions: po.
Data set [10] can be described thus: In vivo acute toxicity against Escherichia coli (KC-14) was determined for the compound administered orally. Format: organism-based. As to conditions: mouse, po.
Data set [11] concerns Mus musculus. Briefly: In vivo antibacterial activity against Escherichia coli (KC-14) was determined for the compound administered perorally. Format: functional. As to conditions: po.
Data set [12] relates to Mus musculus. Briefly: In vivo antibacterial activity against Escherichia coli (KC-14) was determined for the compound administered perorally; Value ranges from 4.8-9.4. It counts as functional. As to conditions: po.

≈ marks a conversion by molar mass, not a printed value.

Broadly, the ED50 is the midpoint of the dose-response relation. High values mean a need for a large dose, low ones an effect at a small dose. A word on the LD50: it is the dose at which mortality reaches 50%. Read a low LD50 as a more toxic substance.

Description for Klebsiella pneumoniae: In vitro antibacterial activity against Klebsiella pneumoniae PCI-602
Description for Salmonella paratyphi: In vitro antibacterial activity against Salmonella paratyphi 1015

Consider `CCn1cc(C(=O)O)c(=O)c2cc(F)c(-n3cccc3)c(F)c21`, for which the MIC in the data set with Salmonella paratyphi is 0.2 µg/mL (≈ 0.628 µM); against Bacillus subtilis it was 0.05 µg/mL (≈ 0.157 µM); with Klebsiella pneumoniae, 0.2 µg/mL (≈ 0.628 µM); with Proteus vulgaris, 0.1 µg/mL (≈ 0.314 µM); in data set [2], 1.56 µg/mL (≈ 4.9 µM); against Staphylococcus aureus, 0.39 µg/mL (≈ 1.23 µM). In addition, the MIC against Escherichia coli was 3.13 µg/mL (≈ 9.83 µM); in the data set with Pseudomonas aeruginosa, 12.5 µg/mL (≈ 39.3 µM). In data set [1], this compound returned a Concentration in serum of 17200 ng/mL. In the data set with Mus musculus [3], the ED50 came to 11.7 mg/kg. The concentration at 0.5 h in [4] amounted to 10700 ng/mL. Also, the concentration at 1 h in data set [5] turned out to be 7070 ng/mL. The concentration at 2 h in [6] is 3230 ng/mL. In [7], this compound had a concentration at 4 h of 1650 ng/mL.

As to `CCn1cc(C(=O)O)c(=O)c2cc(F)c(-n3cnnc3)cc21`, the MIC is 3.13 µg/mL (≈ 10.4 µM) with Salmonella paratyphi; 25 µg/mL (≈ 82.7 µM) against Bacillus subtilis; 12.5 µg/mL (≈ 41.4 µM) against Klebsiella pneumoniae; 25 µg/mL (≈ 82.7 µM) against Proteus vulgaris; 25 µg/mL (≈ 82.7 µM) in data set [2]; 25 µg/mL (≈ 82.7 µM) against Staphylococcus aureus. Also, the MIC in the data set with Escherichia coli and in the data set on Pseudomonas aeruginosa was 25 µg/mL (≈ 82.7 µM) throughout.

As for `CCn1cc(C(=O)O)c(=O)c2cc(F)c(-n3cnc(C(=O)N(C)C)c3)c(F)c21`, the MIC in the data set on Salmonella paratyphi was found to be 3.13 µg/mL (≈ 8.02 µM); against Bacillus subtilis, 6.25 µg/mL (≈ 16 µM); with Klebsiella pneumoniae, 1.56 µg/mL (≈ 4 µM); against Proteus vulgaris it was 3.13 µg/mL (≈ 8.02 µM); in data set [2] it was 25 µg/mL (≈ 64 µM); against Staphylococcus aureus, 12.5 µg/mL (≈ 32 µM). For the same compound, the MIC in the data set on Escherichia coli and against Pseudomonas aeruginosa was 25 µg/mL (≈ 64 µM) each time.

As for `CCn1cc(C(=O)O)c(=O)c2cc(F)c(-n3cnc4ccccc43)c(F)c21`, the MIC is 0.78 µg/mL (≈ 2.11 µM) with Salmonella paratyphi; 0.05 µg/mL (≈ 0.135 µM) in the data set with Bacillus subtilis; 0.39 µg/mL (≈ 1.06 µM) against Klebsiella pneumoniae; 0.78 µg/mL (≈ 2.11 µM) in the data set with Proteus vulgaris; 1.56 µg/mL (≈ 4.22 µM) in [2]; 0.2 µg/mL (≈ 0.542 µM) with Staphylococcus aureus. Moreover, the MIC against Escherichia coli amounted to 1.56 µg/mL (≈ 4.22 µM); against Pseudomonas aeruginosa, 12.5 µg/mL (≈ 33.8 µM).

As for `CCn1cc(C(=O)O)c(=O)c2cc(F)c(-n3ccnc3)c(OC)c21`, the MIC with Salmonella paratyphi stood at 0.1 µg/mL (≈ 0.302 µM); against Bacillus subtilis it was 0.1 µg/mL (≈ 0.302 µM); against Klebsiella pneumoniae, 0.1 µg/mL (≈ 0.302 µM); against Proteus vulgaris, 0.1 µg/mL (≈ 0.302 µM); in [2], 1.56 µg/mL (≈ 4.71 µM); against Staphylococcus aureus, 0.39 µg/mL (≈ 1.18 µM). Moreover, the figures for the MIC against Escherichia coli and against Pseudomonas aeruginosa were 1.56 µg/mL (≈ 4.71 µM) and 25 µg/mL (≈ 75.5 µM), respectively.

Turning to `CCn1cc(C(=O)O)c(=O)c2cc(F)c(-n3ccnc3)c(F)c21`, the Concentration in serum in data set [1] stood at 64900 ng/mL. The values for the LD50 in data set [8] and in data set [10] were 773 mg/kg and 4000 mg/kg, respectively. Further, in data set [4], the concentration at 0.5 h turned out to be 44800 ng/mL. Further, it took a dose of 4 mg/kg to reach the 50% effect level in the data set with Mus musculus [9] (ED50). This compound showed a concentration at 1 h in data set [5] of 39300 ng/mL. The compound also came in with a concentration at 2 h in data set [6] of 7600 ng/mL. In data set [7], this compound gave a concentration at 4 h of 1700 ng/mL.

For the compound `CCn1cc(C(=O)O)c(=O)c2cc(F)c(-n3cnc(CO)c3)c(F)c21`, the MIC turned out to be 0.39 µg/mL (≈ 1.12 µM) with Salmonella paratyphi; 6.25 µg/mL (≈ 17.9 µM) in the data set on Bacillus subtilis; 0.78 µg/mL (≈ 2.23 µM) against Klebsiella pneumoniae; 0.78 µg/mL (≈ 2.23 µM) in the data set on Proteus vulgaris; 25 µg/mL (≈ 71.6 µM) in [2]; 25 µg/mL (≈ 71.6 µM) against Staphylococcus aureus. The MIC with Escherichia coli came to 6.25 µg/mL (≈ 17.9 µM); in the data set on Pseudomonas aeruginosa, 25 µg/mL (≈ 71.6 µM).

As to `CCn1cc(C(=O)O)c(=O)c2cc(F)c(-n3ccnc3)cc21`, the MIC was found to be 0.1 µg/mL (≈ 0.332 µM) against Salmonella paratyphi; 0.78 µg/mL (≈ 2.59 µM) against Bacillus subtilis; 0.2 µg/mL (≈ 0.664 µM) with Klebsiella pneumoniae; 0.2 µg/mL (≈ 0.664 µM) against Proteus vulgaris; 25 µg/mL (≈ 83 µM) in data set [2]; 6.25 µg/mL (≈ 20.7 µM) with Staphylococcus aureus. In addition, the figures for the MIC against Escherichia coli and against Pseudomonas aeruginosa were 1.56 µg/mL (≈ 5.18 µM) and 12.5 µg/mL (≈ 41.5 µM), respectively. Besides, in data set [1], the Concentration in serum came to 5500 ng/mL. The concentration at 0.5 h in data set [4] was determined as 4200 ng/mL. The concentration at 1 h in data set [5] is 2300 ng/mL. For the same compound, the concentration at 2 h in data set [6] worked out at 1100 ng/mL. In the data set on Mus musculus [11], this compound showed an ED50 of 50 mg/kg.

As to `CCn1cc(C(=O)O)c(=O)c2cc(F)c(-n3cnc4c3CCCC4)c(F)c21`, the MIC against Salmonella paratyphi is 6.25 µg/mL (≈ 16.7 µM); in the data set with Bacillus subtilis, 0.39 µg/mL (≈ 1.04 µM); against Klebsiella pneumoniae it was 1.56 µg/mL (≈ 4.18 µM); against Proteus vulgaris it was 3.13 µg/mL (≈ 8.38 µM); in [2] it was 6.25 µg/mL (≈ 16.7 µM); against Staphylococcus aureus, 1.56 µg/mL (≈ 4.18 µM). Besides, the MIC in the data set on Escherichia coli turned out to be 12.5 µg/mL (≈ 33.5 µM); against Pseudomonas aeruginosa, 25 µg/mL (≈ 67 µM).

Turning to `CCn1cc(C(=O)O)c(=O)c2cc(F)c(-n3cccc3)cc21` [IRLOXACIN], the MIC against Salmonella paratyphi is 0.1 µg/mL (≈ 0.333 µM); in the data set on Bacillus subtilis it was 0.05 µg/mL (≈ 0.167 µM); against Klebsiella pneumoniae, 0.2 µg/mL (≈ 0.666 µM); against Proteus vulgaris it was 0.1 µg/mL (≈ 0.333 µM); in data set [2], 1.56 µg/mL (≈ 5.19 µM); against Staphylococcus aureus it was 0.39 µg/mL (≈ 1.3 µM). Also, the MIC was 3.13 µg/mL (≈ 10.4 µM) in the data set with Escherichia coli and 12.5 µg/mL (≈ 41.6 µM) against Pseudomonas aeruginosa. Also, the Concentration in serum in [1] came to 6800 ng/mL. The same compound gave a concentration at 0.5 h in data set [4] of 5530 ng/mL. The compound further had a concentration at 1 h in data set [5] of 2200 ng/mL. Besides, the concentration at 2 h in data set [6] turned out to be 840 ng/mL. The same compound showed an ED50 with Mus musculus [11] of 50 mg/kg. The compound further returned a concentration at 4 h in data set [7] of 550 ng/mL.

In turn, `CCn1cc(C(=O)O)c(=O)c2cc(F)c(N3CCNCC3)cc21` [NORFLOXACIN] returned a Concentration in serum in [1] of 2000 ng/mL. The LD50 was determined as 327 mg/kg in data set [8] and 4000 mg/kg in [10]. The compound further gave a concentration at 0.5 h in data set [4] of 1050 ng/mL. Moreover, the concentration at 1 h in [5] amounted to 690 ng/mL. Also, in data set [6], the concentration at 2 h was 400 ng/mL. Besides, in the data set with Mus musculus [12], the 50% effect level (ED50) was put at a dose of 6.7 mg/kg. In data set [7], the concentration at 4 h is 360 ng/mL.

(Values after ChEMBL document CHEMBL1123556, “Synthesis of antimicrobial agents. 1. Syntheses and antibacterial activities of 7-(azole substituted)quinolones” (J Med Chem, 1987).)
